Measured values taken from ChEMBL document CHEMBL1153761, “Bisnicalaterine A, a vobasine-vobasine bisindole alkaloid from Hunteria zeylanica” (J Nat Prod, 2009).
In brackets after ≈: the same amount, converted by molar mass.

Experiments:
Assay type in all cases: functional, cell-based
[1] = tested on: HL-60; assay: Cytotoxicity against human HL60 cells after 48 hrs by MTT assay; conditions: HL-60, 48 h
[2] = tested on: RPMI-8226; assay: Cytotoxicity against human RPMI8226 cells after 48 hrs by MTT assay; conditions: RPMI-8226, 48 h
[3] = tested on: NCI-H226; assay: Cytotoxicity against human NCI-H226 cells after 48 hrs by MTT assay; conditions: NCI-H226, 48 h
[4] = tested on: HCT-116; assay: Cytotoxicity against human HCT116 cells after 48 hrs by MTT assay; conditions: HCT-116, 48 h
[5] = tested on: MCF7; assay: Cytotoxicity against human MCF7 cells after 48 hrs by MTT assay; conditions: MCF7, 48 h

Work on `C/C=C1/CN(C)[C@H]2Cc3c([nH]c4ccccc34)[C@H](n3c4c(c5ccccc53)C[C@H]3[C@@H](C(=O)OC)[C@H](C[C@H]4O)/C(=C\C)CN3C)C[C@H]1[C@@H]2C(=O)OC` [BISNICALATERINE A] yielded an IC50 [1] of 16.2 µg/mL (≈ 23.4 µM), an IC50 [2] of 31.3 µg/mL (≈ 45.3 µM) and an IC50 [3] of 28.1 µg/mL (≈ 40.7 µM). The IC50 [4] was 21.9 µg/mL (≈ 31.7 µM) and the IC50 [5] was 38 µg/mL (≈ 55 µM).
